According to article PMC6389993, “Quercetin and its metabolite isorhamnetin promote glucose uptake through different signalling pathways in myotubes” (Scientific Reports, 2019):
Like-named read-outs stand apart in the source and are kept apart here.

Columns and labels:
[1] = system: Akt; test: Phosphorylation of Akt in L6 myotubes (western blot); assay type: cell-based, rat; conditions: 15 min; for Akt phosphorylation at Ser473: higher concentrations (1 μM and 10 μM)
Method: For in vitro cell culture experiments, after serum starvation for 18 h, myotubes were treated with various concentrations of quercetin or isorhamnetin (0.1–10 nM) for 15 min; DMSO (final 0.1%) was used as a vehicle control. As positive controls, 100 nM insulin, 1 mM AICAR, 10 nM leptin, or 100 ng/mL IL-15 were used for insulin, AMPK, JAK2/STAT, or JAK3/STAT signalling pathways, respectively. Cells were treated with insulin or AICAR for 15 min, leptin for 60 min, or IL-15 for 24 h. Whole protein and plasma membrane fractions were prepared from myotubes, as previously described. For in vivo experiment, plasma membrane fraction and tissue lysate of soleus muscle were prepared.
Translocation of GLUT4 to the plasma membrane, as well as expression and phosphorylation levels of GLUT4-related regulators were estimated by western blot analysis. Briefly, equal amounts of proteins were separated by sodium dodecyl sulfate-polyacrylamide gel electrophoresis (SDS-PAGE). Separated proteins were transferred onto a polyvinylidene fluoride membrane and nonspecific binding sites were blocked using either Blocking One (to detect unphosphorylated proteins) or Blocking One-P (to detect phosphoproteins). The membrane was incubated overnight with an appropriate primary antibody for GLUT4 (1:5000), IR (1:10000), p-IRS1 (1:5000), IRS1 (1:5000), p-PI3K (1:5000), PI3K (1:10000), p-Akt (1:5000), Akt (1:10000), p-AMPKα (1:5000), AMPKα (1:10000), p-ACC (1:5000), ACC (1:10000), p-LKB1 (1:5000), LKB1 (1:10000), p-JAK2 (1:5000), JAK2 (1:5000), p-JAK3 (1:5000), JAK3 (1:10000), p-STAT1 (1:5000), STAT1 (1:10000), p-STAT3 (1:5000), STAT3 (1:10000), p-STAT5 (1:5000), STAT5 (1:10000), or β-actin (1:20000), and subsequently treated with the corresponding horseradish peroxidase-conjugated secondary antibody (1:50000) for 1 h. Specific immune complexes were developed using ImmunoStar® LD and detected with an ATTO Light-Capture II Western Blotting Detection System. Individual band density was calculated by ImageJ and normalized to the control.
42 after morphological analysis of differentiation status using phase-contrast microscopy.
43 Preparation of whole protein and plasma membrane fractions After serum starvation
44 for 18 h, myotubes were treated with various concentrations of quercetin or isorhamnetin (1–
45 10 μM) for 15 min; DMSO (final 0.1%) was used as a vehicle control. As positive controls,
46 100 nM insulin, 1 mM AICAR, or 10 nM leptin were used for insulin, AMPK or JAK2/STAT
47 signalling pathways, respectively. Cells were treated with insulin or AICAR for 15 min, or
48 leptin for 60 min. […]
59 complexes were developed using ImmunoStar® LD and detected with an ATTO Light-Capture
60 Ⅱ Western Blotting Detection System. Individual band density was calculated by ImageJ and […]

[2] = Plasma concentrations of quercetin and isorhamnetin in mice after oral EMIQ (HPLC); assay type: in vivo; conditions: male, ICR, mouse, HPLC without deconjugation, read-out: Concentration in plasma, Aglycone form
Method: All animal experiments were performed according to the guidelines for animal experiments at Kobe University Animal Experimentation Regulation and approved by the Institutional Animal Care and Use Committed of Kobe University (Permission 29-05-02). Male ICR mice (5 weeks old, n = 20) were obtained from Japan SLC (Shizuoka, Japan) and maintained at constant temperature (23 ± 2 °C) with a 12 h light-dark cycle (lights on at 8:00 am). Mice were subsequently randomly divided into four groups of five each, and acclimatized for 1 week with free access to tap water and a laboratory-purified diet (3.850 kcal/g diet) consisting of 76% carbohydrate, 15% protein and 9% fat) (Research Diets, Tokyo, Japan). For analysis of concentrations of quercetin and isorhamnetin in the plasma and GLUT4 translocation in the muscle, mice were orally administrated EMIQ at 10, 100, or 1000 mg/kg body weight, or water as a vehicle control after 18 h fasting. The mice were sacrificed 90 min after the administration under anesthesia using sodium pentobarbital and seroflurane, and euthanized by exsanguination from cardiac puncture. Plasma and soleus muscle were collected, and kept at -80 °C until use.
To determine the levels of quercetin and isorhamnetin after administration of EMIQ, the obtained plasma were analyzed using HPLC (UV 370 nm) with or without deconjugation treatment using glucuronidase/sulfatase[16]. Briefly, an aliquot of 250 μl of plasma was mixed with 50 μl of 20% (w/v) ascorbic acid and incubated with 125 μl of 75 mM potassium phosphate buffer (pH 6.8) with or without 500 U/sample β-glucronidase and 125 μl of 200 mM sodium acetate buffer (pH 5.0) with or without 10 U/sample sulfatase for 2 h at 37 °C after adding 2 μl of 1 mM nobiletin as an internal standard. To separate quercetin and isorhamnetin, mixture was applied on a Sep-Pak C18 1 cc Vac Cartridge and eluted with 2 ml 95% (v/v) methanol. After eluate was dried by evaporation, dried material was dissolved in 50 μl of 50% (v/v) methanol and applied to HPLC. HPLC was performed using a SHIMADZU LabSolutions system (SHIMADZU, Kyoto, Japan) with SPD-M20A diode array detector. HPLC separation was done with a gradient system using 0.02% aqueous phosphoric acid as mobile phase A and acetonitrile as mobile phase B with a Cadenza CL-C18 column (φ 4.6 mm × 250 mm, Kyoto, Japan) at a flow rate of 1.0 ml/min. The gradient program was 0–13 min, 20% B, 13–33 min, 50–80% B, 33–43 min, 100% B, 43–60 min, 20% B.

Row | SMILES | Akt phosphorylation at Thr308 and Ser473 ([1]; 10 nM) | Akt phosphorylation at Ser473 [1] | concentration at 90 min ([2]; plasma, oral, 90 min after oral EMIQ 10 mg/kg body weight) | concentration at 90 min ([2]; plasma, oral, 90 min after oral EMIQ 100 mg/kg body weight) | concentration at 90 min ([2]; plasma, oral, 90 min after oral EMIQ 1000 mg/kg body weight) | Akt phosphorylation ([1]; 0.1–10 nM) | concentration at 90 min ([2]; in vivo, 90 min after oral EMIQ 1000 mg/kg body weight)
1 | O=c1c(O)c(-c2ccc(O)c(O)c2)oc2cc(O)cc(O)c12 [quercetin, 3,3′,4′,5,7-pentahydroxy flavone] | increased Akt phosphorylation | significantly increased Akt phosphorylation | 4.95 ± 0.82 nM | 6.8 ± 2 nM | 138 ± 45.1 nM | – | –
2 | COc1cc(-c2oc3cc(O)cc(O)c3c(=O)c2O)ccc1O [isorhamnetin, 3′-O-methyl quercetin] | – | significantly increased Akt phosphorylation | – | – | – | did not affect Akt phosphorylation | 131 ± 51.5 nM
